Experimental data: US11918691B2, “Local delivery of antineoplastic particles in combination with systemic delivery of immunotherapeutic agents for the treatment of cancer” (CRITITECH, INC., priority 2017, dated 2024)

What was measured:
[1] = test system: human renal cell adenocarcinoma (786-0 cell line); test: Rat xenograft model of human renal cell adenocarcinoma: histology and immunohistochemistry of residual tumors; type: in vivo, Sprague-Dawley Rag2; Il2rg null (SRG) rat
Experimental: Microscopic Examination: Tissues fixed with 10% NBF were embedded in paraffin. Each tumor was cut into 2-3 pieces and embedded and sectioned together.
The lymphohistiocytic infiltrate density based on assessment of […] and immunohistochemical staining with CD11b, graded semi quantitatively is shown in Table 31.
A review was conducted on the morphologic and immunohistochemical features of a subset of 14 female rats from the renal cell carcinoma study aimed to assess the efficacy of intratumoral NanoDoce® (the total study contained 30 animals). […] The NanoDoce® group was separated into three groups based on the number of administered cycles: group 1 (1 cycle; 3 animals), group 2 (2 cycles; 3 animals), and group 3 (3 cycles; 2 animals).

[2] = test system: UM-UC-3 bladder cancer cell line (ATCC-CRL-1749) tumors; test: Human bladder cancer (UM-UC-3) mouse xenograft study: tumor volume, body weight, histology; type: in vivo, Hsd:Athymic Nude-Foxn1nu nude mice
Experimental: Tumor volume was determined with calipers. […] Animals were weighed 2×/week.
At day 18 after tumor implant, when average tumor size was between 50-325 mm^3, animals were sorted into five groups with equal average tumor sizes and were treated as shown in Table 25 below.
For IT administration (Vehicle/NANODOCE®), injections (using 27 G, ½″ needle) were administered at three sites within the tumor (total calculated injection volume based on 40 mg/mL NANODOCE® stock and 25 g mouse=63 μL; split evenly across the three injection sites) to maximize distribution of the test formulation throughout the tumor. The second treatments (2nd cycle) occurred 7 days following first treatment (1st cycle) and third treatments (3rd cycle) occurred 14 days following the first treatment. The docetaxel solution IV was administered via the tail vein.
The test formulations were prepared as follows: • Vehicle (Control): Diluted 1 ml of the 1% Polysorbate 80/8% Ethanol in normal saline (0.9% Sodium Chloride for Injection) reconstitution solution with 1.5 mL of normal saline (0.9% Sodium Chloride for Injection, USP). The final concentration of polysorbate 80 was 0.4% and the final concentration of ethanol was 3.2% in the Vehicle. • NANODOCE® Suspension: Added 1 ml of the 1% Polysorbate 80/8% Ethanol in normal saline (0.9% Sodium Chloride for Injection) reconstitution solution into the vial of NANODOCE® particles powder (100 mg/60 cc vial). The mean particle size (number) of the NANODOCE® particles powder was 1.0 micron. Vigorously hand shook the vial with inversions for 1 minute. […] Vortexed to mix.

[3] = test system: human renal cell adenocarcinoma (786-0 cell line); test: Rat xenograft model of human renal cell adenocarcinoma: tumor volume, body weight, observations; type: in vivo, Sprague-Dawley Rag2; Il2rg null (SRG) rat; conditions: IV, 3 weekly cycles
[4] = Rat xenograft model of human renal cell adenocarcinoma: docetaxel concentration in tumor tissue, LC-MS/MS; type: in vivo, Sprague-Dawley Rag2; Il2rg null (SRG) rat; conditions: 38 days following the last of three weekly cycles IV (5-[…]); LOQ 1.00 ng/g
Experimental: A calibration curve, prepared in rat control tumor tissue homogenate, was analyzed at the beginning and the end of each analytical run. Two sets of quality control (QC) samples were prepared at four concentration levels (low, mid-1, mid-2 and high) and were used to ensure reliability of the assay.

Compound | Number of animals with <5% of tissue showing necrosis ([1]; IV docetaxel, 2 animals) | Number of animals with Mild lymphohistiocytic infiltrate density (H&E and CD11b IHC, semi quantitative) ([1]; IV docetaxel, 2 animals) | histology general observations (H&E) ([2]; Docetaxel Solution IV 3 cycles) | initial animal weight loss compared with NanoDoce IT 1, 2 and 3 cycles ([2]; IV 3 cycles) | signs of peripheral neuropathy compared with NanoDoce IT 3 cycles ([2]; IV 3 cycles) | treatment effect relative to initial tumor size ([2]; IV 3 cycles) | tumor volumes over time ([2]; IV 3 cycles (weekly), 61 days) | tumor growth compared to vehicle control [3] | animals evaluated with a detectable docetaxel level in tumor tissue [4] | docetaxel level in tumor tissue [4] [ng/g] | histology (H&E) compared with vehicle control ([1]; IV 3 cycles, female rat) | Number of animals with residual viable tumor >10 mm (maximum cross-sectional dimension of viable carcinoma on slide) ([1]; IV docetaxel QWX3, 2 animals evaluated) | residual viable carcinoma nodule, maximum dimension on the slide ([1]; both IV docetaxel animals) | morphologic and immunohistochemical appearance ([1]; two IV docetaxel cases (3 cycles))
CC(=O)O[C@@]12CO[C@@H]1C[C@H](O)[C@@]1(C)C(=O)[C@H](O)C3=C(C)[C@@H](OC(=O)[C@H](O)[C@@H](NC(=O)OC(C)(C)C)c4ccccc4)C[C@@](O)([C@@H](OC(=O)c4ccccc4)[C@H]21)C3(C)C [Doce] | 2 | 2 | – | – | – | – | – | – | – | – | – | – | – | –
CC(=O)OC12CO[C@@H]1C[C@H](O)[C@@]1(C)C(=O)[C@H](O)C3=C(C)[C@@H](OC(=O)[C@H](O)[C@@H](NC(=O)OC(C)(C)C)c4ccccc4)C[C@@](O)([C@@H](OC(=O)c4ccccc4)[C@H]21)C3(C)C (some centres unmarked) [Docetaxel, docetaxel] | – | – | many viable appearing tumor masses with some macrophage and occasional lymphocytic response along with some tumor necrosis | generally greater | greater signs of peripheral neuropathy | somewhat effective at treating small tumors, but not very effective in treating large tumors | decreased initially for dosages of NanoDoce® IT 1 cycle and Docetaxel IV 3 cycles, but subsequently increased | partial tumor growth inhibition | one of four | 21.8 | no difference | 2 | greater than 10 mm | identical morphologic and immunohistochemical appearance to that seen in the control and IT vehicle groups
